Experimental data reported in PMC6723808, “New Benzofuranoids and Phenylpropanoids from the Mangrove Endophytic Fungus, Aspergillus sp. ZJ-68” (Marine Drugs, 2019).
≈ marks a conversion by molar mass, not a printed value.

What was measured:
Assay in all cases: Antibacterial assay, MIC by continuous dilution method in 96-well plates
[1] = test system: P. aeruginosa (ATCC 27853); assay type: cell-based; conditions: Pseudomonas aeruginosa, ATCC27853, read-out: MIC (μg/mL) P. aeruginosa
Method: (§1) Two Gram-positive bacteria B. subtilis (ATCC 6633) and S. aureus (ATCC 25923), and two Gram-negative bacteria E. coli (ATCC 25922) and P. aeruginosa (ATCC 27853) were used. The antibacterial assay and the determination of the MIC were assessed according to continuous dilution method in 96-well plates which has been described in our published paper. The tested substances were dissolved in DMSO and ciprofloxacin was the positive control.

[2] = test system: S. aureus (ATCC 25923); assay type: cell-based, Staphylococcus aureus; conditions: for MIC: Staphylococcus aureus, ATCC25923, S. aureus ATCC 25923, read-out: MIC (μg/mL) S. aureus
Method: as §1

[3] = test system: E. coli (ATCC 25922); assay type: cell-based, Escherichia coli; conditions: for MIC: Escherichia coli, ATCC25922, E. coli ATCC 25922, read-out: MIC (μg/mL) E. coli
Method: as §1

[4] = test system: B. subtilis (ATCC 6633); assay type: cell-based, Bacillus subtilis; conditions: for MIC: Bacillus subtilis, ATCC6633, B. subtilis ATCC 6633, read-out: MIC (μg/mL) B. subtilis
Method: as §1

Row | SMILES | MIC [1] [µg/mL] | MIC [2] [µg/mL] | MIC [3] [µg/mL] | MIC [4] [µg/mL] | MIC (μg/mL) S. aureus ([2]; S. aureus ATCC 25923) [µg/mL] | MIC (μg/mL) E. coli ([3]; E. coli ATCC 25922) [µg/mL] | MIC (μg/mL) B. subtilis ([4]; B. subtilis ATCC 6633) [µg/mL]
1 | CCCc1ccc2c(c1CO)O[C@@H](C(C)(C)O)C2 [Compound 11, (−)-brassicadiol] | > 100 | – | – | – | – | – | –
2 | CCCc1ccc(O)c(O)c1CO [Compound 6, Asperpanoid A] | > 100 | > 100 | > 100 | > 100 | – | – | –
3 | O=C(O)c1cn(C2CC2)c2cc(N3CCNCC3)c(F)cc2c1=O [ciprofloxacin, reference compound] | 2.5 ± 1.2 (≈ 7.54 µM) | 1.25 ± 1.1 (≈ 3.77 µM) | 1.25 ± 1.12 (≈ 3.77 µM) | 2.5 ± 1.1 (≈ 7.54 µM) | – | – | –
4 | CCCc1cccc(O)c1CO [Compound 8, 2-(hydroxymethyl)-3-propylphenol] | > 100 | 4.15 to 12.5 (≈ 25 to 75.2 µM) | 4.15 to 12.5 (≈ 25 to 75.2 µM) | 4.15 to 12.5 (≈ 25 to 75.2 µM) | 4.15 ± 1.12 (≈ 25 µM) | 8.3 ± 1.0 (≈ 49.9 µM) | 8.3 ± 1.1 (≈ 49.9 µM)
5 | CC(C)=C1Oc2c(ccc(CC(C)O)c2CO)C1=O (stereo not drawn) [Compound 14, ustusorane A] | > 100 | > 100 | > 100 | > 100 | – | – | –
6 | CC(C)=C1Oc2c(ccc3c2[C@@H](O)O[C@H](C)C3)C1=O [Compound 12, (+)-pseudodeflectusin] | > 100 | > 100 | > 100 | > 100 | – | – | –
